Patent publication US8952024B2, “Herbicidal pyrimidone derivatives” (E I du Pont de Nemours and Company, priority 2009, dated 2015)

Key:
Assay in all cases: Test B pre-/postemergence plant response
Assay type in all cases: in vivo
[1] = tested on: large crabgrass (Digitaria sanguinalis)
Method in brief: (§1)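 Ratings reflect visual comparison with untreated controls 13 to 15 days after application, from 0 (no effect) to 100 (complete control). Application was preemergence to seeded loam/sand soil or postemergence to 1- to 4-leaf plants, with compound in a non-phytotoxic, surfactant-containing solvent.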

[2] = tested on: Surinam grass (Brachiaria decumbens)
Method in brief: as §1

[3] = tested on: pigweed (Amaranthus retroflexus)
Method in brief: as §1

[4] = tested on: galium (catchweed bedstraw, Galium aparine); details: Preemergence; for Galium plant response rating: 125 g ai/ha
Method in brief: as §1

[5] = tested on: woolly cupgrass (Eriochloa villosa)
Method in brief: as §1

[6] = tested on: lambsquarters (Chenopodium album)
Method in brief: as §1

corn (Zea mays) = tested on: corn (Zea mays)
Method in brief: as §1

[7] = tested on: nightshade (eastern black nightshade, Solanum ptycanthum); details: Preemergence; for Nightshade plant response rating: 125 g ai/ha
Method in brief: as §1

[8] = tested on: Italian ryegrass (Lolium multiflorum)
Method in brief: as §1

[9] = tested on: sunflower (common oilseed sunflower, Helianthus annuus); details: Preemergence; for Sunflower plant response rating: 125 g ai/ha
Method in brief: as §1

[10] = tested on: goosegrass (Eleusine indica)
Method in brief: as §1

[11] = tested on: goosegrass (Eleusine indica); details: Preemergence, 62 g ai/ha; scale 0 to 100, 0 no effect, 100 complete control
[12] = 250 g ai/ha, Preemergence, 0 to 100 scale
[13] = Postemergence, 31 g ai/ha, scale 0 to 100 (0 no effect, 100 complete control)
[14] = Postemergence, 62 g ai/ha, scale 0 (no effect) to 100 (complete control), 13 to 15 days
[15] = Postemergence, 125 g ai/ha, visual rating after 13 to 15 days, scale 0 (no effect) to 100 (complete control)
[16] = Postemergence, 250 g ai/ha, scale 0 to 100
[17] = Preemergence, 31 g ai/ha, scale 0 to 100 (0 no effect, 100 complete control)
[18] = Preemergence, 62 g ai/ha, scale 0 to 100, 0 no effect, 100 complete control
[19] = Preemergence, 125 g ai/ha, 0 to 100 scale
[20] = 31 g ai/ha, scale 0 to 100 (0 no effect, 100 complete control)
[21] = 62 g ai/ha, scale 0 to 100, 0 no effect, 100 complete control

Cc1cc(F)ccc1-n1c(-c2ccccc2)ncc(C(=O)C2=C(O)CCCC2=O)c1=O [Compound 48]
Plant response rating, Crabgrass, Large [1, 12]: 100
Plant response rating, Crabgrass, Large [1, 13]: 85
Plant response rating, Crabgrass, Large [1, 14]: 85
Plant response rating, Crabgrass, Large [1, 15]: 95
Crabgrass, Large plant response rating [1, 16]: 95
Plant response rating, Crabgrass, Large [1, 17]: 75
Plant response rating, Crabgrass, Large [1, 18]: 90
Crabgrass, Large plant response rating [1, 19]: 100
Plant response rating, Surinam Grass [2, 12]: 100
Plant response rating, Surinam Grass [2, 14]: 85
Plant response rating, Surinam Grass [2, 15]: 95
Plant response rating, Surinam Grass [2, 17]: 80
Surinam Grass plant response rating [2, 19]: 100
Plant response rating, Pigweed [3, 12]: 100
Plant response rating, Pigweed [3, 14]: 85
Plant response rating, Pigweed [3, 15]: 100
Plant response rating, Pigweed [3, 17]: 100
Pigweed plant response rating [3, 19]: 100
Plant response rating, Galium ([4]; 250 g ai/ha, 0 to 100 scale): 70
Plant response rating, Galium [4, 20]: 0
Plant response rating, Galium [4, 21]: 60
Galium plant response rating ([4]; 0 to 100 scale): 60
Plant response rating, Cupgrass, Woolly [5, 12]: 95
Plant response rating, Cupgrass, Woolly [5, 13]: 80
Plant response rating, Cupgrass, Woolly [5, 14]: 80
Plant response rating, Cupgrass, Woolly [5, 15]: 90
Cupgrass, Woolly plant response rating [5, 16]: 95
Plant response rating, Cupgrass, Woolly [5, 17]: 10
Plant response rating, Cupgrass, Woolly [5, 18]: 10
Cupgrass, Woolly plant response rating [5, 19]: 75
Plant response rating, Lambsquarters [6, 12]: 100
Plant response rating, Lambsquarters [6, 14]: 95
Plant response rating, Lambsquarters [6, 15]: 100
Lambsquarters plant response rating [6, 16]: 100
Plant response rating, Lambsquarters [6, 17]: 100
Plant response rating, Lambsquarters [6, 18]: 100
Lambsquarters plant response rating [6, 19]: 100
Plant response rating, Corn (corn (Zea mays); [12]): 0
Plant response rating, Corn (corn (Zea mays); [13]): 65
Plant response rating, Corn (corn (Zea mays); [14]): 70
Plant response rating, Corn (corn (Zea mays); [15]): 85
Corn plant response rating (corn (Zea mays); [16]): 85
Plant response rating, Corn (corn (Zea mays); [17]): 0
Plant response rating, Corn (corn (Zea mays); [18]): 0
Corn plant response rating (corn (Zea mays); [19]): 0
Plant response rating, Nightshade ([7]; 250 g ai/ha, 0 to 100 scale): 100
Plant response rating, Nightshade [7, 20]: 100
Plant response rating, Nightshade [7, 21]: 100
Nightshade plant response rating ([7]; 0 to 100 scale): 100
Plant response rating, Ryegrass, Italian [8, 12]: 0
Plant response rating, Ryegrass, Italian [8, 14]: 5
Plant response rating, Ryegrass, Italian [8, 15]: 30
Plant response rating, Ryegrass, Italian [8, 17]: 0
Ryegrass, Italian plant response rating [8, 19]: 0
Plant response rating, Sunflower ([9]; 250 g ai/ha, 0 to 100 scale): 80
Plant response rating, Sunflower [9, 20]: 0
Sunflower plant response rating ([9]; 0 to 100 scale): 80
Plant response rating, Goosegrass [10, 12]: 100
Plant response rating, Goosegrass [10, 14]: 85
Plant response rating, Goosegrass [10, 15]: 95
Goosegrass plant response rating [10, 16]: 98
Plant response rating, Goosegrass [10, 17]: 98
Goosegrass plant response rating [10, 19]: 100
Plant response rating, Goosegrass [11]: 100

Cc1ccc(C)c(-n2c(-c3ccccc3)ncc(C(=O)C3=C(O)CCCC3=O)c2=O)c1 [Compound 29]
Plant response rating, Crabgrass, Large [1, 12]: 100
Plant response rating, Crabgrass, Large [1, 13]: 45
Plant response rating, Crabgrass, Large [1, 14]: 50
Plant response rating, Crabgrass, Large [1, 15]: 55
Crabgrass, Large plant response rating [1, 16]: 80
Plant response rating, Crabgrass, Large [1, 17]: 98
Plant response rating, Crabgrass, Large [1, 18]: 100
Crabgrass, Large plant response rating [1, 19]: 100
Plant response rating, Surinam Grass [2, 12]: 95
Plant response rating, Surinam Grass [2, 14]: 50
Plant response rating, Surinam Grass [2, 15]: 70
Surinam Grass plant response rating [2, 16]: 85
Plant response rating, Surinam Grass [2, 17]: 0
Plant response rating, Surinam Grass [2, 18]: 20
Surinam Grass plant response rating [2, 19]: 90
Plant response rating, Pigweed [3, 12]: 100
Plant response rating, Pigweed [3, 14]: 65
Plant response rating, Pigweed [3, 15]: 80
Pigweed plant response rating [3, 16]: 85
Plant response rating, Pigweed [3, 17]: 100
Plant response rating, Pigweed [3, 18]: 100
Pigweed plant response rating [3, 19]: 100
Plant response rating, Galium ([4]; 250 g ai/ha, 0 to 100 scale): 100
Plant response rating, Galium [4, 20]: 50
Plant response rating, Galium [4, 21]: 80
Galium plant response rating ([4]; 0 to 100 scale): 98
Plant response rating, Cupgrass, Woolly [5, 12]: 90
Plant response rating, Cupgrass, Woolly [5, 13]: 80
Plant response rating, Cupgrass, Woolly [5, 14]: 85
Plant response rating, Cupgrass, Woolly [5, 15]: 85
Cupgrass, Woolly plant response rating [5, 16]: 85
Plant response rating, Cupgrass, Woolly [5, 17]: 5
Plant response rating, Cupgrass, Woolly [5, 18]: 10
Cupgrass, Woolly plant response rating [5, 19]: 55
Plant response rating, Lambsquarters [6, 12]: 100
Plant response rating, Lambsquarters [6, 14]: 85
Plant response rating, Lambsquarters [6, 15]: 90
Lambsquarters plant response rating [6, 16]: 98
Plant response rating, Lambsquarters [6, 17]: 100
Plant response rating, Lambsquarters [6, 18]: 100
Lambsquarters plant response rating [6, 19]: 100
Plant response rating, Corn (corn (Zea mays); [12]): 0
Plant response rating, Corn (corn (Zea mays); [13]): 20
Plant response rating, Corn (corn (Zea mays); [14]): 35
Plant response rating, Corn (corn (Zea mays); [15]): 50
Corn plant response rating (corn (Zea mays); [16]): 60
Plant response rating, Corn (corn (Zea mays); [17]): 0
Plant response rating, Corn (corn (Zea mays); [18]): 0
Corn plant response rating (corn (Zea mays); [19]): 0
Plant response rating, Nightshade ([7]; 250 g ai/ha, 0 to 100 scale): 100
Plant response rating, Nightshade [7, 20]: 90
Plant response rating, Nightshade [7, 21]: 90
Nightshade plant response rating ([7]; 0 to 100 scale): 100
Plant response rating, Ryegrass, Italian [8, 12]: 40
Plant response rating, Ryegrass, Italian [8, 14]: 20
Plant response rating, Ryegrass, Italian [8, 15]: 40
Ryegrass, Italian plant response rating [8, 16]: 45
Plant response rating, Ryegrass, Italian [8, 17]: 0
Plant response rating, Ryegrass, Italian [8, 18]: 0
Ryegrass, Italian plant response rating [8, 19]: 10
Plant response rating, Sunflower ([9]; 250 g ai/ha, 0 to 100 scale): 100
Plant response rating, Sunflower [9, 20]: 75
Plant response rating, Sunflower [9, 21]: 85
Sunflower plant response rating ([9]; 0 to 100 scale): 90
Plant response rating, Goosegrass [10, 12]: 100
Plant response rating, Goosegrass [10, 14]: 85
Plant response rating, Goosegrass [10, 15]: 85
Goosegrass plant response rating [10, 16]: 95
Plant response rating, Goosegrass [10, 17]: 95
Goosegrass plant response rating [10, 19]: 100
Plant response rating, Goosegrass [11]: 100
